Earlier results, collected in patent US4610818A, “N-acyl derivatives of dipeptides, their preparation and their use in the therapy of disorders, and agents for this purpose” (BASF Aktiengesellschaft, priority 1982, dated 1986).

Test system: tremor, rigor and akinesia
Details: Parkinson patients, MIF alone or in combination with L-dopa

In the case of L-Pro-L-Leu-Gly-NH2 [MIF], the “effect on tremor, rigor and akinesia” value is listed as “advantageous effect”.
